Data published in ChEMBL document CHEMBL3885861, “Open TG-GATES”.

Species on record: Rattus norvegicus
Assay: Open TG-GATES - Regimen: Daily Repeat
Type: toxicity, organism-based, Sprague-Dawley
Design: regimen Daily Repeat, gender Male, age 6 weeks
Conditions: in vivo, po, 100 mg/kg, route gavage, dose level Low; for APTT / Bas / Eos / Fbg / Hb / Ht / Lym / MCH / MCHC / MCV / Mono / Neu / PT / Plat / RBC / Ret / WBC: tissue Blood
[1] = 72 h, tissue Kidney, time 3 day
[2] = 72 h, tissue Plasma, time 3 day

`CN(C)[C@@H]1C(O)=C(C(N)=O)C(=O)[C@@]2(O)C(O)=C3C(=O)c4c(O)cccc4[C@@](C)(O)[C@H]3C[C@@H]12` [TETRACYCLINE] was tested. Which TERMINAL_BW (72 h, time 3 day) did it give?
The TERMINAL_BW was 197.6 g.

What about the APTT (72 h, time 3 day) of the same compound?
The APTT was 16.3 s.

And the Bas (72 h, time 3 day)?
Its Bas is 0%.

What about the Eos (72 h, time 3 day) of the same compound?
Its Eos is 0.8%.

And the Fbg (72 h, time 3 day)?
Its Fbg is 225.6 mg/dL.

And the Hb (72 h, time 3 day)?
The Hb was 13.2 g/dL.

What about the Ht (72 h, time 3 day) of the same compound?
Its Ht is 39.6%.

What about the Lym (72 h, time 3 day) of the same compound?
The Lym was 85%.

And the MCH (72 h, time 3 day)?
The MCH was 21.7 pg.

And the MCHC (72 h, time 3 day)?
Its MCHC is 33.4%.

And the MCV (72 h, time 3 day)?
The MCV was 65.1 fL.

And the Mono (72 h, time 3 day)?
The Mono was 5.2%.

What about the Neu (72 h, time 3 day) of the same compound?
Its Neu is 9%.

And the PT (72 h, time 3 day)?
The PT was 12.1 s.

And the Plat (72 h, time 3 day)?
Its Plat is 103.9 x10_4/uL.

And the RBC (72 h, time 3 day)?
The RBC was 608.6 x10_4/ul.

And the Ret (72 h, time 3 day)?
Its Ret is 7.9%.

What about the WBC (72 h, time 3 day) of the same compound?
Its WBC is 100.3 x10_2/uL.

And the KIDNEY_L [1]?
Its KIDNEY_L is 0.9 g.

And the KIDNEY_R [1]?
The KIDNEY_R was 0.9 g.

What about the KIDNEY_TOTAL [1] of the same compound?
The KIDNEY_TOTAL was 1.8 g.

What about the LIVER (72 h, tissue Liver, time 3 day) of the same compound?
The LIVER was 9.3 g.

And the A/G [2]?
Its A/G is 2.1.

And the ALP [2]?
Its ALP is 900.4 IU/L.

And the ALT [2]?
The ALT was 40.6 IU/L.

And the AST [2]?
The AST was 73.4 IU/L.

What about the BUN [2] of the same compound?
Its BUN is 16.8 mg/dL.

And the CRE [2]?
The CRE was 0.6 mg/dL.

And the Ca [2]?
The Ca was 11.2 mg/dL.

What about the Cl [2] of the same compound?
Its Cl is 106.4 meq/L.

What about the DBIL [2] of the same compound?
Its DBIL is 0 mg/dL.

What about the GLC [2] of the same compound?
Its GLC is 195.6 mg/dL.

What about the IP [2] of the same compound?
The IP was 9 mg/dL.

And the K [2]?
Its K is 4.8 meq/L.

And the LDH [2]?
Its LDH is 134.4 IU/L.

What about the Na [2] of the same compound?
Its Na is 140 meq/L.

What about the PL [2] of the same compound?
The PL was 145.2 mg/dL.

And the RALB [2]?
Its RALB is 3.9 g/dL.

And the TBIL [2]?
Its TBIL is 0.3 mg/dL.

And the TC [2]?
Its TC is 86.2 mg/dL.

And the TG [2]?
Its TG is 48.8 mg/dL.

And the TP [2]?
The TP was 5.7 g/dL.

What about the gamma-GTP [2] of the same compound?
Its gamma-GTP is 0.8 IU/L.

And the TERMINAL_BW ([…], time 7 day)?
Its TERMINAL_BW is 227.4 g.

What about the TERMINAL_BW ([…], time 14 day) of the same compound?
Its TERMINAL_BW is 271.9 g.

What about the TERMINAL_BW ([…], time 28 day) of the same compound?
Its TERMINAL_BW is 346.9 g.

What about the APTT ([…], time 7 day) of the same compound?
The APTT was 16.7 s.

What about the Bas ([…], time 7 day) of the same compound?
The Bas was 0%.

What about the Eos ([…], time 7 day) of the same compound?
Its Eos is 1%.

What about the Fbg ([…], time 7 day) of the same compound?
The Fbg was 241 mg/dL.

And the Hb ([…], time 7 day)?
Its Hb is 13.5 g/dL.

What about the Ht ([…], time 7 day) of the same compound?
The Ht was 40.2%.

What about the Lym ([…], time 7 day) of the same compound?
Its Lym is 85.2%.

What about the MCH ([…], time 7 day) of the same compound?
Its MCH is 21 pg.

And the MCHC ([…], time 7 day)?
The MCHC was 33.6%.

And the MCV ([…], time 7 day)?
The MCV was 62.3 fL.

And the Mono ([…], time 7 day)?
The Mono was 6.2%.

And the Neu ([…], time 7 day)?
The Neu was 8%.

And the PT ([…], time 7 day)?
Its PT is 12 s.

What about the Plat ([…], time 7 day) of the same compound?
The Plat was 101.8 x10_4/uL.

And the RBC ([…], time 7 day)?
The RBC was 645.8 x10_4/ul.

And the Ret ([…], time 7 day)?
The Ret was 6.6%.

What about the WBC ([…], time 7 day) of the same compound?
Its WBC is 114 x10_2/uL.

What about the APTT ([…], time 14 day) of the same compound?
The APTT was 16.5 s.

What about the Bas ([…], time 14 day) of the same compound?
Its Bas is 0%.

What about the Eos ([…], time 14 day) of the same compound?
Its Eos is 0.6%.

What about the Fbg ([…], time 14 day) of the same compound?
The Fbg was 229.6 mg/dL.

What about the Hb ([…], time 14 day) of the same compound?
Its Hb is 13.9 g/dL.

And the Ht ([…], time 14 day)?
The Ht was 41.7%.

And the Lym ([…], time 14 day)?
The Lym was 91.2%.

And the MCH ([…], time 14 day)?
The MCH was 20.9 pg.

And the MCHC ([…], time 14 day)?
Its MCHC is 33.5%.

And the MCV ([…], time 14 day)?
Its MCV is 62.5 fL.

And the Mono ([…], time 14 day)?
The Mono was 2.4%.

What about the Neu ([…], time 14 day) of the same compound?
The Neu was 6.2%.

What about the PT ([…], time 14 day) of the same compound?
The PT was 11.7 s.

And the Plat ([…], time 14 day)?
The Plat was 108.7 x10_4/uL.

What about the RBC ([…], time 14 day) of the same compound?
The RBC was 667.2 x10_4/ul.

What about the Ret ([…], time 14 day) of the same compound?
The Ret was 5.5%.

And the WBC ([…], time 14 day)?
Its WBC is 180.6 x10_2/uL.

And the APTT ([…], time 28 day)?
Its APTT is 17.5 s.

What about the Bas ([…], time 28 day) of the same compound?
The Bas was 0%.

And the Eos ([…], time 28 day)?
The Eos was 1%.

What about the Fbg ([…], time 28 day) of the same compound?
Its Fbg is 230.2 mg/dL.

What about the Hb ([…], time 28 day) of the same compound?
The Hb was 14.8 g/dL.

What about the Ht ([…], time 28 day) of the same compound?
Its Ht is 44.5%.
